Consider 105 molecules from PubChem BioAssay AID1996.

In brackets after ≈: the same amount, converted by molar mass.

The term kinetic solubility denotes solubility judged after dilution from a stock solution rather than from solid.

For this series the following is noted: buffer; pH 7.4; 200.0 µM.
`CSCC[C@H](NC(=O)Nc1ccccc1C)C(=O)O` had a kinetic solubility of over 42.4 µg/mL.

`Cl.O=C(Nc1ccccc1)N1CCNCC1` yielded a solubility (kinetic) of 30.6 µg/mL. For `O=C(Nc1nc2ccccc2[nH]1)C1CCCC1` the value was 4 µg/mL (≈ 17.4 µM); for `CC(C)c1ccc(S(=O)(=O)N2CCN(C(=O)CN3C(=O)c4ccccc4C3=O)CC2)cc1`, 3.1 µg/mL (≈ 6.81 µM). As to `COc1ccc(C(=O)n2cnc3ccccc32)cc1[N+](=O)[O-]`, the solubility (kinetic) was 29.4 µg/mL (≈ 98.9 µM). For `N#Cc1ccc(COC(=O)CCc2c[nH]c3ccccc23)cc1` the value was 3 µg/mL (≈ 9.86 µM); for `COc1ccccc1-c1noc(-c2ccccc2C(=O)NCc2ccco2)n1`, 49.4 µg/mL (≈ 132 µM); for `CC(=O)Nc1ccc2sc(C)nc2c1`, over 30.9 µg/mL.

In turn, `C[C@@H]1NC(=O)N(c2ccc(F)cc2)C1=O` yielded a kinetic solubility of 31.1 µg/mL (≈ 149 µM). Molecule `O=C(CCc1ccc(S(=O)(=O)N2CCOCC2)cc1)OCC(=O)c1ccc(Br)cc1` returned a solubility (kinetic) of 6.7 µg/mL (≈ 13.5 µM).

As for `CCN(CC)CCCN=Cc1c(O)n(-c2cccc(C)c2)c(=O)c2ccccc12`, the kinetic solubility is over 58.7 µg/mL. For `O=C(CN1CCN(c2ccccc2)CC1)N1CCc2ccccc21` the value was 7 µg/mL (≈ 21.8 µM).

Turning to `CCC(=NCc1cccnc1)c1c(O)n(-c2ccccc2)c(=O)[nH]c1=O`, the kinetic solubility was 43.5 µg/mL (≈ 124 µM). The result for `C[N+]1(C)CCCC(OC(=O)C(O)(c2ccccc2)c2ccccc2)C1.[Br-]` (stereo not given) reads over 63.1 µg/mL. The result for `CCOC(=O)CNc1nc(Cl)nc(Nc2ccc(C)cc2)n1` reads 0.5 µg/mL (≈ 1.55 µM); that for `CCCCC1CN2CCc3c([nH]c4ccccc34)C2(C)C1.Cl` (stereo not given), 27.7 µg/mL; that for `Cc1ccc(C(=O)OCC(=O)NC2CCCCCC2)c(C)c1`, 4.6 µg/mL (≈ 15.2 µM).

`CC(C)(C)CC(=O)NC(=S)NCc1ccccc1` yielded a solubility (kinetic) of 1.7 µg/mL (≈ 6.43 µM). As to `O=C(CCC(=O)c1ccccc1)NCCOc1ccccc1`, the solubility (kinetic) is over 44.6 µg/mL. On to `O=C(Cc1ccccc1F)Nc1ccc2c(c1)CCC2`, for which the solubility (kinetic) amounted to 4.7 µg/mL (≈ 17.5 µM). `CCCC(=O)OCC(=O)Nc1ccccc1C#N` gave a solubility (kinetic) of over 36.9 µg/mL. For `O=C1CCCN1CCCNS(=O)(=O)c1ccccc1` the value was over 42.4 µg/mL; for `COc1ccc(N2C(=O)CS/C2=N\C(=S)Nc2ccccc2)cc1`, 1.4 µg/mL (≈ 3.92 µM). In turn, `O=C(/C=C/c1ccc([N+](=O)[O-])cc1)NCCOc1ccc(F)cc1` gave a kinetic solubility of 4 µg/mL (≈ 12.1 µM). This solubility kinetic is about 2.9-fold higher than that of the molecule before. For `O=[N+]([O-])c1ccc(CN2CCCCCC2)cc1` the value was over 35.1 µg/mL. The result for `CC(C)(C)C(=O)Nc1nc2cc3c(cc2s1)OCO3` reads 0.6 µg/mL (≈ 2.16 µM); that for `COc1cc(C)ccc1OCC(=O)NCC1CCCO1` (stereo not given), over 41.9 µg/mL.

`Cn1c(N)c(C(=O)CN2CCc3ccccc3C2)c(=O)n(C)c1=O`: the solubility (kinetic) was over 49.3 µg/mL. For `CC[C@@H](Nc1ncnc2c1oc1ccccc12)C(=O)O` the value was 29.9 µg/mL (≈ 110 µM); for `COc1cc2ccccc2cc1C(=O)Nc1ccc(O)cc1`, 0.8 µg/mL (≈ 2.73 µM). The result for `COc1ccccc1OC(C)C(=O)N1CCC(Cc2ccccc2)CC1` (stereo not given) reads 50.9 µg/mL (≈ 144 µM). For `CCC(=O)Nc1ccc2c(c1)nc(CCN1CCCCC1)n2C` the value was 43.2 µg/mL (≈ 137 µM); for `O=C(CN1C(=O)c2ccccc2S1(=O)=O)c1ccccc1F`, 17.8 µg/mL (≈ 55.7 µM); for `CC(CCN1CCOCC1)c1ccccc1` (stereo not given), 19.3 µg/mL (≈ 88 µM). In the case of `CN(C)CCNC(=O)Cn1c(=O)c2cccn2c2ccc(F)cc21`, the kinetic solubility is over 49.6 µg/mL. Regarding `O=C1NC(=O)C(c2ccc(Cl)cc2)N1` (stereo not given), the kinetic solubility is over 31.6 µg/mL. For `N#CCC(=O)Nc1ccc(C(=O)Nc2cccc(S(N)(=O)=O)c2)cc1`, the kinetic solubility worked out at 46.2 µg/mL (≈ 129 µM). The result for `Cc1cc(Cl)ccc1OCC(=O)Nc1ccc(CN2CCOCC2)cc1` reads 41.3 µg/mL (≈ 110 µM); that for `O=C(O)/C=C/c1cn(-c2ccccc2)nc1-c1ccccc1`, over 43.5 µg/mL. The result for `COc1ccc(CC(=O)OCC(=O)NC2CCCC(C)C2C)cc1OC` (stereo not given) reads over 54.5 µg/mL; that for `CC(C)(C)c1ccc(C(=O)O/N=C(\N)c2ccccc2)cc1`, 1.1 µg/mL (≈ 3.71 µM). For `Cc1cccc(NC(=O)Nc2ccc(S(N)(=O)=O)cc2)c1` the value was 22.1 µg/mL (≈ 72.4 µM); for `CCOC(=O)c1cc(C#N)c(N2CCNCC2)nc1C(F)(F)F`, over 49.2 µg/mL; for `Cc1ccc(SCCNCc2ccco2)cc1.Cl`, 27.9 µg/mL. `Cc1nnc(N)s1` registered a kinetic solubility of over 17.3 µg/mL.

In the case of `CCOC(=O)N1CCN(C(=O)c2ccc3ccccc3c2)CC1`, the solubility (kinetic) was over 46.9 µg/mL.

In turn, `O=C(CS(=O)c1ccc(F)cc1)N1CCOCC1` (stereo not given) gave a kinetic solubility of over 40.7 µg/mL. For `COc1ccc(CCN(C)C(=O)c2cnc(C)cn2)cc1OC` the value was 38.1 µg/mL (≈ 121 µM).

For the molecule `Cc1cc(C)c2c(CN3CCOCC3)cc(=O)oc2c1`, the kinetic solubility turned out to be 37.2 µg/mL (≈ 136 µM). The result for `O=C1CCCN1S(=O)(=O)c1ccc(F)cc1` reads over 36.5 µg/mL. The result for `COc1ccc(C(=O)OC2CC3CCC(C2)[N+]3(C)[O-])cc1OC` (stereo not given) reads 47.8 µg/mL (≈ 149 µM); that for `CCOC(=O)C(=CNc1cc(C)ccc1-n1cccc1)C(=O)OCC`, 0.7 µg/mL (≈ 2.04 µM). On to `CCCN(CC(=O)Nc1ccccc1OC)C(=O)CC1CCCC1`, for which the solubility (kinetic) was over 49.9 µg/mL.

Consider `Cc1cc(C)cc(NC2=C(N)C(=O)c3ccccc3C2=O)c1`, for which the solubility (kinetic) is 0.4 µg/mL (≈ 1.37 µM). In turn, `COc1ccc(NS(=O)(=O)c2cc(N)ccc2N2CCCC2)cc1` returned a kinetic solubility of 47.6 µg/mL (≈ 137 µM). The result for `COc1ccc(Cn2c(=O)oc3ccccc32)cc1F` reads 1.1 µg/mL (≈ 4.03 µM). `CCc1cc(C(=O)NCC2CCCO2)sc1C` (stereo not given) returned a kinetic solubility of over 38 µg/mL. The result for `COc1ccc(NC(=S)N2CCN(C)CC2)cc1` reads over 39.8 µg/mL. With `CC(Sc1nc(N)cc(N)n1)C(=O)NCC1CCCO1` (stereo not given), the solubility (kinetic) was over 44.6 µg/mL. For `COc1cccc(C=Nc2ccc(N3CCOCC3)cc2)c1O` the value was 33.7 µg/mL (≈ 108 µM); for `O=[N+]([O-])c1ccc2c(c1)nc(CO)n2Cc1ccccc1`, 9.3 µg/mL (≈ 32.8 µM); for `Cc1ccc(C(=O)NC2=NCCS2)cc1Cl`, 3.1 µg/mL (≈ 12.2 µM). For `CCNC(=S)Nc1ccc(-c2nc3ccccc3[nH]2)cc1` the value was over 44.5 µg/mL; for `O=C(CNc1ccccc1C(=O)O)c1ccccc1`, 36.3 µg/mL (≈ 142 µM); for `COc1cccc2[nH]c3c(N4CCc5ccccc5C4)ncnc3c12`, 0.9 µg/mL (≈ 2.72 µM). For `CC(=O)Nc1ccc(S(=O)(=O)NC2CC3CCC2C3)cc1` (stereo not given) the value was over 46.3 µg/mL; for `CN(Cc1ccccc1Cl)C(=O)c1cnccc1C(F)(F)F`, over 49.3 µg/mL. `Cc1nn(-c2ccccc2)c2nc(N)c(C(N)=O)cc12`: the kinetic solubility was over 40.1 µg/mL. Turning to `O=C(Cn1c(CO)nc2ccccc21)NCCc1ccccc1`, the kinetic solubility is over 46.4 µg/mL.

`Cc1ccc(C)c(C(=O)CN2Cc3ccccc3C2=O)c1` gave a solubility (kinetic) of 6.1 µg/mL (≈ 21.8 µM).

In turn, `Cc1ccc(S(=O)(=O)CC(=O)Nc2nc3ccccc3s2)cc1` registered a kinetic solubility of 1.3 µg/mL (≈ 3.75 µM). This solubility kinetic is about 4.7-fold lower than that of the molecule before. The result for `COC(OC)c1ccc(C#N)c(SCc2ccccc2)n1` reads 9.4 µg/mL (≈ 31.3 µM). Take `COc1ccc(CC(=O)Nc2ccc(OC(C)=O)cc2C(=O)O)cc1`: the kinetic solubility was over 51.5 µg/mL.

With `COc1ccc([N+](=O)[O-])cc1NC(=O)C1CCCNC1=O` (stereo not given), the solubility (kinetic) came out at 19.1 µg/mL (≈ 65.1 µM). For `Nc1ccccc1SC1CC(=O)N(c2ccc3c(c2)OCCO3)C1=O` (stereo not given), the kinetic solubility was determined as 0.9 µg/mL (≈ 2.53 µM). For `Cc1ccc(NC(=O)C2CCCN(c3ncccn3)C2)c(C)c1` (stereo not given) the value was 8.5 µg/mL (≈ 27.4 µM). The result for `CCOc1c(C)cnc2c1c(=O)n(Cc1ccccc1F)c(=O)n2C` reads 15.8 µg/mL (≈ 46 µM); that for `Cc1ccc(NC(=O)CSc2ccc3c(c2)OCCO3)nc1`, over 47.5 µg/mL; that for `CCOC(=O)c1csc(NC(C)=O)n1`, over 32.1 µg/mL. For `Cc1cccc(C)c1NC(=S)N/N=C/c1ccc(C(=O)O)cc1` the value was over 49.1 µg/mL.

In turn, `CC1CC(C)(C)NC(=S)N1CCC(=O)N1CCc2ccccc2C1` (stereo not given) came in with a kinetic solubility of 38.8 µg/mL (≈ 112 µM). `CN(Cc1ccccc1)S(=O)(=O)c1cn(C)cn1` yielded a solubility (kinetic) of over 39.8 µg/mL. The result for `COc1ccccc1CNC(=O)COc1ccc2c(c1)CCC2` reads 20.5 µg/mL (≈ 65.8 µM); that for `CCOC(=O)C1(C)Oc2cccnc2NC1=O` (stereo not given), 35.2 µg/mL (≈ 149 µM). For `Cc1c(C(=O)CN2CCCC(C)(C)C2)c2ccccc2n1C` the value was over 44.8 µg/mL. Take `N#CCC(=O)Nc1ccc(C(=O)OCC(=O)NC(=O)Nc2ccc3c(c2)OCCO3)cc1`: the solubility (kinetic) is 10.5 µg/mL (≈ 24 µM). On to `Nc1ncnc(NC2CCS(=O)(=O)C2)c1[N+](=O)[O-]` (stereo not given), for which the kinetic solubility is over 41 µg/mL.

Molecule `O=C(Nc1cccc2c1CCCC2)c1ccccc1Br` came in with a solubility (kinetic) of under 0.7 µg/mL.

`CCOC(=O)N1CCN(C(=S)NC(=O)C2CCCC2)CC1` displayed a kinetic solubility of over 47 µg/mL.

`O=C(NCc1cccnc1)c1cnc2ccccc2n1` yielded a solubility (kinetic) of over 39.6 µg/mL. For `CC(=O)c1cn(Cc2ccccc2F)c2ccccc12` the value was under 0.6 µg/mL. The result for `CC(C)(C)c1ccccc1NC(=S)NC1CCCC1` reads 30.9 µg/mL (≈ 112 µM). The result for `O=C(Nc1cccc2ccccc12)OCc1cncs1` reads over 42.6 µg/mL.

As to `COc1ccccc1CC(=O)NCC(c1ccco1)N1CCCCC1` (stereo not given), the kinetic solubility was over 51.4 µg/mL. For `CC1CCN(C(=O)c2cc(-c3ccco3)on2)CC1` the value was 37.7 µg/mL (≈ 145 µM); for `O=C(CN1CCOCC1)Nc1ccccc1C(=O)Nc1ccccc1`, 39.1 µg/mL (≈ 115 µM). For `CO/N=C(/CN1CCCCC1)c1ccc(Cl)cc1` the value was 8.9 µg/mL (≈ 33.4 µM); for `COc1cc(S(=O)(=O)N2CCOCC2)ccc1NC(=O)COC(=O)c1cc(OC)c(OC)c(OC)c1`, 4.5 µg/mL (≈ 8.58 µM); for `COC(=O)NC1c2ccccc2Oc2ccccc21`, 0.7 µg/mL (≈ 2.74 µM).

In turn, `Cn1cccc1C1CCCN1CC(=O)Nc1ccc(C#N)c(Cl)c1` (stereo not given) displayed a solubility (kinetic) of 12.3 µg/mL (≈ 35.9 µM). The molecule `N#C/C(=C\c1ccccc1O)C(=O)Nc1ccccn1` displayed a kinetic solubility of 32.9 µg/mL (≈ 124 µM). The molecule `N[C@H](CSCc1ccccc1)C(=O)Nc1ccc([N+](=O)[O-])cc1` yielded a kinetic solubility of 36.3 µg/mL (≈ 110 µM). For the molecule `Cn1c(=O)c2c([nH]c(=S)n2Cc2ccc(Cl)cc2)n(C)c1=O`, the kinetic solubility is over 50.5 µg/mL.

Consider `COC(=O)c1sc(-c2cccs2)cc1NC(=O)/C=C/C(=O)O`, for which the kinetic solubility is over 50.6 µg/mL. For `CCSc1nc2sc3c(c2c(=O)n1CC)CCC3` the value was 2.2 µg/mL (≈ 7.85 µM).
